This is an account of results in patent publication US8110588B2, “1,2,3-triazole derivatives useful as modulators of nicotinic acetylcholine receptors” (Neurosearch A/S, priority 2007, dated 2012).

Data set [1] addresses T1, wild-type nAChR α7 receptors (Homo sapiens, UniProt P36544).
T1 construct: expressed in transfected cells; host or cells: Xenopus laevis oocytes
In words: Positive modulation of acetylcholine-induced currents, two-electrode voltage clamp in Xenopus oocytes. Type of data set: cell-based. The conditions noted are these: for maximal modulation of the acetylcholine (control) response (Imax) / EC50: 100 μM acetylcholine, nAChR α7 expressed in Xenopus laevis oocytes; for maximal modulation of the acetylcholine (control) response (Imax): (test-control)/control×100%; for EC50: clamped at −60 mV, compound 0.01-31.6 μM, read-out: EC50 for positive modulation of acetylcholine responses; for effect on acetylcholine-induced current amplitude: 0.01-31.6 μM compound applied 30 s before and during 100 μM acetylcholine application. The procedure: In this example the positive modulation of wild-type nAChR α7 receptors by Compound 1 (FIGS. 1A and 1B) and Compound 3 (FIGS. 2A and 2B) was determined using nAChR α7 receptors heterologously expressed in Xenopus laevis oocytes.
The electrical current through the nAChR α7 channel was measured using conventional two-electrode voltage clamp and nAChR α7 currents were activated by applying pulses of agonist-containing solution onto the nAChR α7 expressing oocyte. In brief, the oocytes were placed in a recording chambers and continuously superfused with an Oocyte Ringer (OR) solution containing 90 mM NaCl, 2.5 mM KCl, 2.5 mM CaCl2, 1 mM MgCl2 and 5 mM HEPES (pH adjusted to 7.4). The oocytes were clamped at −60 mV and currents were induced by applying 20 s pulses of 100 μM acetylcholine dissolved in OR. The intervals between the acetylcholine applications were 5 minutes, during which the oocytes were washed with OR. The first three applications were control applications to insure a constant response level of 100 μM acetylcholine.
The positive modulation in the presence of Compound 1 and Compound 3 was calculated as (test-control)/control×100% and the concentration response curve for this positive modulation was fitted to the sigmoidal logistic equation: I=Imax/(1+(EC50/[compound])^n), where Imax represents the maximal modulation of the control response, EC50 is the concentration causing a half maximal response, and n is the slope coefficient.
(In two-electrode clamp one electrode senses voltage and the other passes current.)

T1 sequence (P36544 23-502): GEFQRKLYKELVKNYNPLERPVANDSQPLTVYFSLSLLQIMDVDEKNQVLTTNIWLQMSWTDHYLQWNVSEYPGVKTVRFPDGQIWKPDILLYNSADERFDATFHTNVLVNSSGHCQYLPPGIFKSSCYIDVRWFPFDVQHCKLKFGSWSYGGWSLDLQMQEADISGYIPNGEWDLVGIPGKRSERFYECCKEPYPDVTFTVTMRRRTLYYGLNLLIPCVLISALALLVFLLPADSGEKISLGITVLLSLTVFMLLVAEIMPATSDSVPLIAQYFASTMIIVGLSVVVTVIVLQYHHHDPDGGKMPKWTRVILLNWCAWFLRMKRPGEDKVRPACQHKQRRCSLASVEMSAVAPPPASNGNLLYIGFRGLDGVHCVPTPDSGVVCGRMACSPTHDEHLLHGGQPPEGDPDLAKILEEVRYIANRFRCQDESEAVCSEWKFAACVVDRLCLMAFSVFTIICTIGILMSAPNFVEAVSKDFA

The EC50 is the concentration at which the effect is half-maximal. In general, melting point refers to the temperature, or range, at which the solid turns liquid. In the case of `COc1ccc(-c2nnn(-c3ccc(Cl)cc3Cl)c2N)cc1` [Compound 1, 3-(2,4-Dichloro-phenyl)-5-(4-methoxy-phenyl)-3H-[1,2,3]triazol-4-ylamine], the melting point lay in the range of 149.2 to 150.7 °C. In data set [1], the “maximal modulation of the acetylcholine (control) response (Imax)” value is listed as 561%, the EC50 is 4.9 µM and the “effect on acetylcholine-induced current amplitude” value is reported as “robust increase”.

The compound `COc1ccc(Cl)cc1-c1nnn(-c2ccc(C(F)(F)F)cc2Cl)c1N` [Compound 2, 5-(5-Chloro-2-methoxy-phenyl)-3-(2-chloro-4-trifluoromethyl-phenyl)-3H-[1,2,3]triazol-4-ylamine] showed a melting point of 152.8 to 153.3 °C.

`COc1ccc(-c2nnn(-c3ccc(C(F)(F)F)cc3Cl)c2N)cc1` [Compound 3, 3-(2-Chloro-4-trifluoromethyl-phenyl)-5-(4-methoxy-phenyl)-3H-[1,2,3]triazol-4-ylamine] showed a melting point of 130 to 130.7 °C. In data set [1], the “maximal modulation of the acetylcholine (control) response (Imax)” value was found to be 563%, the EC50 was found to be 1.7 µM and the “effect on acetylcholine-induced current amplitude” value is listed as “robust increase”.

In turn, `COc1ccc(Cl)cc1-c1nnn(-c2ccc(Cl)cc2Cl)c1N` [Compound 4, 5-(5-Chloro-2-methoxy-phenyl)-3-(2,4-dichloro-phenyl)-3H-[1,2,3]triazol-4-ylamine] gave a melting point of 153.5 to 154.7 °C.

`COc1ccc(-c2nnn(-c3ccc(F)cc3Cl)c2N)cc1` [Compound 5, 3-(2-Chloro-4-fluoro-phenyl)-5-(4-methoxy-phenyl)-3H-[1,2,3]triazol-4-ylamine]: the melting point lay within 136.3 to 141.2 °C.

`COc1ccc(-n2nnc(-c3ccc(Cl)cc3Cl)c2N)cc1` [Compound 6, 5-(2,4-Dichloro-phenyl)-3-(4-methoxy-phenyl)-3H-[1,2,3]triazol-4-ylamine] had a melting point of 154.6 to 163.9 °C.

For `COc1ccc(-c2nnn(-c3cc(C)on3)c2N)cc1` [Compound 7, 5-(4-Methoxy-phenyl)-3-(5-methyl-isoxazol-3-yl)-3H-[1,2,3]triazol-4-yl amine], the melting point fell in the range of 136.3 to 141.2 °C.

For `Nc1c(-c2cc(Cl)ccc2O)nnn1-c1ccc(Cl)cc1Cl` [Compound 8, 2-[5-Amino-1-(2,4-dichloro-phenyl)-1H-[1,2,3]triazol-4-yl]-4-chloro-phenol], the melting point is 131.3 to 135.6 °C.

The compound `Nc1c(-c2cc(Cl)ccc2O)nnn1-c1ccc(C(F)(F)F)cc1Cl` [Compound 9, 2-[5-Amino-1-(2-chloro-4-trifluoromethyl-phenyl)-1H-[1,2,3]triazol-4-yl]-4-chloro-phenol] displayed a melting point of 74.5 to 77.5 °C.

With `Nc1c(-c2ccc(-c3nnco3)cc2)nnn1-c1ccc(C(F)(F)F)cc1F` [Compound 10, 3-(2-Fluoro-4-trifluoromethyl-phenyl)-5-(4-[1,3,4]oxadiazol-2-yl-phenyl)-3H-[1,2,3]triazol-4-ylamine], the melting point is 184.6 to 186.1 °C.

Take `CC(=O)Nc1ccc(-c2nnn(-c3ccc(C(F)(F)F)cc3F)c2N)cc1` [Compound 11, N-{4-[5-Amino-1-(2-fluoro-4-trifluoromethyl-phenyl)-1H-[1,2,3]triazol-4-yl]-phenyl}-acetamide]: the melting point was 114.8 to 116.2 °C.

As for `Nc1ccc(-c2nnn(-c3ccc(C(F)(F)F)cc3F)c2N)cc1` [Compound 12, 5-(4-Amino-phenyl)-3-(2-fluoro-4-trifluoromethyl-phenyl)-3H-[1,2,3]triazol-4-ylamine], the melting point is 163.6 to 165 °C.

`Nc1c(-c2ccc(C(F)(F)F)cc2F)nnn1-c1ccc(S(N)(=O)=O)cc1` [Compound 13, 4-[5-Amino-4-(2-fluoro-4-trifluoromethyl-phenyl)-[1,2,3]triazol-1-yl]-benzenesulfonamide] had a melting point of 183.8 to 185.2 °C.

As for `Nc1c(-c2ccc(O)cc2)nnn1-c1ccc(C(F)(F)F)cc1F` [Compound 15, 4-[5-Amino-1-(2-fluoro-4-trifluoromethyl-phenyl)-1H-[1,2,3]triazol-4-yl]-phenol], the melting point fell in the range of 163.5 to 165.2 °C.

Take `COc1ccc(-n2nnc(-c3ccc(C(F)(F)F)cc3F)c2N)cc1` [Compound 16, 5-(2-Fluoro-4-trifluoromethyl-phenyl)-3-(4-methoxy-phenyl)-3H-[1,2,3]triazol-4-ylamine]: the melting point is 164.6 to 165.5 °C.

`Nc1c(-c2ccc(C(F)(F)F)cc2F)nnn1-c1ccc(O)cc1` [Compound 17, 4-[5-Amino-4-(2-fluoro-4-trifluoromethyl-phenyl)-[1,2,3]triazol-1-yl]-phenol] had a melting point of 176.2 to 177.5 °C.

`Nc1c(-c2ccc(Cl)cc2)nnn1-c1ccc(C(F)(F)F)cc1F` [Compound 18, 5-(4-Chloro-phenyl)-3-(2-fluoro-4-trifluoromethyl-phenyl)-3H-[1,2,3]triazol-4-ylamine]: the melting point was 169.9 to 170.2 °C.

Consider `Nc1c(-c2ccc(OC(F)(F)F)cc2)nnn1-c1ccc(C(F)(F)F)cc1F` [Compound 19, 3-(2-Fluoro-4-trifluoromethyl-phenyl)-5-(4-trifluoromethoxy-phenyl)-3H-[1,2,3]triazol-4-ylamine], for which the melting point fell in the range of 134.2 to 134.9 °C.

For `Nc1c(-c2ccc(O)cc2)nnn1-c1ccc(C(F)(F)F)cc1Cl` [Compound 21, 4-[5-Amino-1-(2-chloro-4-trifluoromethyl-phenyl)-1H-[1,2,3]triazol-4-yl]-phenol], the melting point was 161 to 162.3 °C.

`COc1ccc(-c2nnn(-c3c(Cl)cc(Cl)cc3I)c2N)cc1` [Compound 22, 3-(2,4-Dichloro-6-iodo-phenyl)-5-(4-methoxy-phenyl)-3H-[1,2,3]triazol-4-ylamine] gave a melting point of 72.5 to 73.6 °C.

`COc1ccc(-n2nnc(-c3ccc(Cl)cc3C(F)(F)F)c2N)cc1` [Compound 23, 5-(4-Chloro-2-trifluoromethyl-phenyl)-3-(4-methoxy-phenyl)-3H-[1,2,3]triazol-4-ylamine]: the melting point was 159.2 to 160.2 °C.

In turn, `COc1ccc(-n2nnc(-c3ccc(F)cc3F)c2N)cc1` [Compound 24, 5-(2,4-Difluoro-phenyl)-3-(4-methoxy-phenyl)-3H-[1,2,3]triazol-4-ylamine] gave a melting point of 152 to 156.5 °C.

With `COc1ccc(-n2nnc(-c3ccc(F)cc3Cl)c2N)cc1` [Compound 25, 5-(2-Chloro-4-fluoro-phenyl)-3-(4-methoxy-phenyl)-3H-[1,2,3]triazol-4-ylamine], the melting point was in the range of 175 to 176.8 °C.

`COc1ccc(-n2nnc(-c3ccc(Cl)c(Cl)c3)c2N)cc1` [Compound 26, 5-(3,4-Dichloro-phenyl)-3-(4-methoxy-phenyl)-3H-[1,2,3]triazol-4-ylamine] displayed a melting point of 189.9 to 191.3 °C.

In the case of `COc1ccc(-n2nnc(-c3ccc(Cl)cc3F)c2N)cc1` [Compound 27, 5-(4-Chloro-2-fluoro-phenyl)-3-(4-methoxy-phenyl)-3H-[1,2,3]triazol-4-ylamine], the melting point was 147.9 to 149.5 °C.
